This note sets out measurements from the supplement of paper PMC10307832.

Holding throughout (experiment): relative viability (nuclei count vs DMSO), 5 days (fraction); higher = more cells survive
Compound in the assay “Idelalisib + Dasatinib”: CC[C@H](Nc1ncnc2[nH]cnc12)c1nc2cccc(F)c2c(=O)n1-c1ccccc1 [Idelalisib] + Cc1nc(Nc2ncc(C(=O)Nc3c(C)cccc3Cl)s2)cc(N2CCN(CCO)CC2)n1 [Dasatinib] (partner 0.075 µM)
In short, it runs like this:
(§1)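 Dosing by pin tool came one day after lung cancer cell lines were seeded in 1536-well plates, using either one drug or a fixed anchor-drug dose plus five library-drug doses (not always all listed) in √10 steps. After 5 days, nuclei were counted on 4× images. Relative viability is treated-well nuclei count divided by vehicle-well nuclei count, and values are medians of duplicate plates.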

Compound in the assay “Pemetrexed + Navitoclax”: Nc1nc2[nH]cc(CCc3ccc(C(=O)N[C@@H](CCC(=O)O)C(=O)O)cc3)c2c(=O)[nH]1 [Pemetrexed] + CC1(C)CCC(c2ccc(Cl)cc2)=C(CN2CCN(c3ccc(C(=O)NS(=O)(=O)c4ccc(N[C@H](CCN5CCOCC5)CSc5ccccc5)c(S(=O)(=O)C(F)(F)F)c4)cc3)CC2)C1 [Navitoclax] (partner 0.5 µM)
In short, it runs like this:
as §1

Compound in the assay “Idelalisib + Trametinib”: CC[C@H](Nc1ncnc2[nH]cnc12)c1nc2cccc(F)c2c(=O)n1-c1ccccc1 [Idelalisib] + CC(=O)Nc1cccc(-n2c(=O)n(C3CC3)c(=O)c3c(Nc4ccc(I)cc4F)n(C)c(=O)c(C)c32)c1 [Trametinib] (partner 0.02 µM)
In short, it runs like this: as §1

Compound in the assay “Idelalisib + Lapatinib”: CC[C@H](Nc1ncnc2[nH]cnc12)c1nc2cccc(F)c2c(=O)n1-c1ccccc1 [Idelalisib] + CS(=O)(=O)CCNCc1ccc(-c2ccc3ncnc(Nc4ccc(OCc5cccc(F)c5)c(Cl)c4)c3c2)o1 [Lapatinib] (partner 2 µM)
In short, it runs like this: as §1

Take UMC-11: the relative viability with Idelalisib + Dasatinib (first compound 0.04 µM) is 0.349; with Idelalisib + Dasatinib (first compound 0.1265 µM), 0.492; with Idelalisib + Dasatinib (first compound 0.4 µM), 0.391; with Idelalisib + Dasatinib (first compound 1.265 µM), 0.564; in the assay with Idelalisib + Dasatinib (first compound 4 µM) it was 0.474; with Pemetrexed + Navitoclax (first compound 0.002 µM), 0.292. Besides, the relative viability with Pemetrexed + Navitoclax (first compound 0.006325 µM) came out at 0.283; with Pemetrexed + Navitoclax (first compound 0.02 µM), 0.354; in the assay with Pemetrexed + Navitoclax (first compound 0.06325 µM), 0.312; in the assay with Pemetrexed + Navitoclax (first compound 0.2 µM), 0.344; in the assay with Idelalisib + Trametinib (first compound 0.04 µM), 0.786; with Idelalisib + Trametinib (first compound 0.1265 µM), 0.651. Moreover, the relative viability with Idelalisib + Trametinib (first compound 0.4 µM) worked out at 0.629; with Idelalisib + Trametinib (first compound 1.265 µM), 0.764; with Idelalisib + Trametinib (first compound 4 µM), 0.72; with Idelalisib + Lapatinib (first compound 0.04 µM) it was 1; with Idelalisib + Lapatinib (first compound 0.1265 µM), 1.02; with Idelalisib + Lapatinib (first compound 0.4 µM), 0.985. In addition, the relative viability with Idelalisib + Lapatinib (first compound 1.265 µM) is 1.14; with Idelalisib + Lapatinib (first compound 4 µM) it was 0.976.
